The structures appear in SMILES notation.

b-Raf (V600E), sequence (P15056 whole entry V600E): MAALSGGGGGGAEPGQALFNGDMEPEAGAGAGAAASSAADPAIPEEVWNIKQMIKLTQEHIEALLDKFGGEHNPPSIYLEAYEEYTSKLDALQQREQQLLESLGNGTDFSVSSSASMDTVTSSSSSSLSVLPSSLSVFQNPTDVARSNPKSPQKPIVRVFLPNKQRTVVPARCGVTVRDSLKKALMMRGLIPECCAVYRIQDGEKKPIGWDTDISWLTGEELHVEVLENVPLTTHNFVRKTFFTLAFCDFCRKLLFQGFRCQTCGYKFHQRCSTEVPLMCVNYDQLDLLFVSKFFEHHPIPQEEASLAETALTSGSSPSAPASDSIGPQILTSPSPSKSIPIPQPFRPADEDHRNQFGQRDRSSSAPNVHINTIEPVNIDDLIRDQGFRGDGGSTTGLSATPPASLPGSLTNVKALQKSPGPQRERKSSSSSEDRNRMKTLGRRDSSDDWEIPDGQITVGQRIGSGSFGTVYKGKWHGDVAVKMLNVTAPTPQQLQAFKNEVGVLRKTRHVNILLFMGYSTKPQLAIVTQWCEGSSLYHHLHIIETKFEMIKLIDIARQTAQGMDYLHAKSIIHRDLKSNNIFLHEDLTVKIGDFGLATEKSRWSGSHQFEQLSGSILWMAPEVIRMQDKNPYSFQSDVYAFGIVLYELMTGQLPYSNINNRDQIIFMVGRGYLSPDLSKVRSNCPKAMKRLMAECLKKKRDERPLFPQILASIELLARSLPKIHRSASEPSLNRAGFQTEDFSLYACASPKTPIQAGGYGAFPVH

The first experiment concerns the target b-Raf (V600E) (Homo sapiens (Human), UniProt P15056, V600E). The note with it: read-out: b-Raf IC-50; AlphaScreen, 60 min pre-incubation, 3 hours reaction. (Alpha assays give light when donor and acceptor beads are brought close together.)
Regarding `Cc1ccc(NC(=O)c2cc(C(F)(F)F)ccn2)cc1-c1cc(N2CCOCC2)c(OC2CCOCC2)nn1` [Example 580, N-(4-methyl-3-(5-morpholino-6-((tetrahydro-2H-pyran-4-yl)oxy)pyridazin-3-yl)phenyl)-4-(trifluoromethyl)picolinamide], the IC50 is 0.5 nM. As to `CNCCN(C)c1cc(C(=O)Nc2ccc(C)c(-c3cc(N4CCOCC4)c(=O)n(C)c3)c2)ccn1` [Example 457, 2-(methyl(2-(methylamino)ethyl)amino)-N-(4-methyl-3-(1-methyl-5-morpholino-6-oxo-1,6-dihydropyridin-3-yl)phenyl)isonicotinamide], the IC50 was determined as 30.5 nM. On the same count and under the same terms, the result for `CCC(F)(F)c1cc(C(=O)Nc2ccc(C)c(-c3cc(N4CCOCC4)n(C)c(=O)c3)c2)ccn1` [Example 475, 2-(1,1-difluoropropyl)-N-(4-methyl-3-(1-methyl-6-morpholino-2-oxo-1,2-dihydropyridin-4-yl)phenyl)isonicotinamide] reads 0.8 nM; that for `CCNc1nc(-c2cc(NC(=O)c3ccnc(C4(C#N)CC4)c3)ccc2C)cc(N2CCOCC2)n1` [Example 708, 2-(1-cyanocyclopropyl)-N-(3-(2-(ethylamino)-6-morpholinopyrimidin-4-yl)-4-methylphenyl)isonicotinamide], 0.5 nM. On the same count and under the same terms, to `CCNc1nc(-c2cc(NC(=O)c3cccc(-c4nnco4)c3)ccc2C)cc(N2CCOCC2)n1` [Example 699, N-(3-(2-(ethylamino)-6-morpholinopyrimidin-4-yl)-4-methylphenyl)-3-(1,3,4-oxadiazol-2-yl)benzamide] belongs 1.7 nM; to `Cn1c(N2C3CCC2COC3)cc(-c2cc(NC(=O)c3ccnc(C(C)(F)F)c3)cnc2Cl)cc1=O` [Example 528, N-(6′-(3-oxa-8-azabicyclo[3.2.1]octan-8-yl)-2-chloro-1′-methyl-2′-oxo-1′,2′-dihydro-[3,4′-bipyridin]-5-yl)-2-(1,1-difluoroethyl)isonicotinamide], 15.2 nM; to `Cc1ccc(NC(=O)c2cnnc(C(C)(C)C#N)c2)cc1-c1cc(N2CCOCC2)c(OC2CCOCC2)nn1` [Example 583, 6-(2-cyanopropan-2-yl)-N-(4-methyl-3-(5-morpholino-6-((tetrahydro-2H-pyran-4-yl)oxy)pyridazin-3-yl)phenyl)pyridazine-4-carboxamide], 1.3 nM. On the same count and under the same terms, to `Cc1ncc(NC(=O)c2ccnc(C3(C#N)CC3)c2)cc1-c1cc(N2CCOCC2)c(=O)n(C)n1` [Example 683, 2-(1-cyanocyclopropyl)-N-(6-methyl-5-(1-methyl-5-morpholino-6-oxo-1,6-dihydropyridazin-3-yl)pyridin-3-yl)isonicotinamide] belongs 11.2 nM; to `CCOc1ncc(-c2cc(NC(=O)c3cc(CN(C)C)cc(C(F)(F)F)c3)cnc2C)nc1N1CCOCC1` [Example 545, 3-((dimethylamino)methyl)-N-(5-(5-ethoxy-6-morpholinopyrazin-2-yl)-6-methylpyridin-3-yl)-5-(trifluoromethyl)benzamide], 16.5 nM; to `Cc1ncc(NC(=O)c2ccnc(C(C)(C)C#N)c2)cc1-c1cc(N2CCOCC2)n(C)c(=O)c1` [Example 499, 2-(2-cyanopropan-2-yl)-N-(1′,2-dimethyl-6′-morpholino-6′-oxo-1′,2′-dihydro-[3,4′-bipyridin]-5-yl)isonicotinamide], 21.9 nM. `CCOc1nnc(-c2cc(NC(=O)c3cc(C(F)(F)F)ccn3)cnc2C)cc1N1CCOCC1` [Example 611, N-(5-(6-ethoxy-5-morpholinopyridazin-3-yl)-6-methylpyridin-3-yl)-4-(trifluoromethyl)picolinamide]: the IC50 is 1.3 nM.

For the compound `CCOc1nnc(-c2cc(NC(=O)c3cccc(C(F)(F)F)c3)cnc2C)cc1N1CCOC[C@@H]1C` [Example 571, (S)—N-(5-(6-ethoxy-5-(3-methylmorpholino)pyridazin-3-yl)-6-methylpyridin-3-yl)-3-(trifluoromethyl)benzamide], the IC50 came to 2.5 nM. As to `Cc1ccc(NC(=O)c2cnnc(C(F)(F)F)c2)cc1-c1cc(N2CCOCC2)n(C)c(=O)c1` [Example 495, N-(4-methyl-3-(1-methyl-6-morpholino-2-oxo-1,2-dihydropyridin-4-yl)phenyl)-6-(trifluoromethyl)pyridazine-4-carboxamide], the IC50 came to 4.5 nM. On the same count and under the same terms, the result for `Cc1ncc(NC(=O)c2ccnc(C(C)(C)C#N)c2)cc1-c1cc(N2CCOCC2)nc(N[C@H](C)CO)n1` [Example 747, (R)-2-(2-cyanopropan-2-yl)-N-(5-(2-((1-hydroxypropan-2-yl)amino)-6-morpholinopyrimidin-4-yl)-6-methylpyridin-3-yl)isonicotinamide] reads 19 nM.

The same experiment, now with this note: read-out: b-Raf IC-50; AlphaScreen, 60 min pre-incubation, reaction 3 hours at room temperature.
Turning to `Cc1ccc(NC(=O)c2ccnc(C(C)(C)C#N)c2)cc1-c1cc(OC2CCOCC2)nc(N2CCOCC2)c1` [Example 1152, 2-(2-cyanopropan-2-yl)-N-(4-methyl-3-(2-morpholino-6-((tetrahydro-2H-pyran-4-yl)oxy)pyridin-4-yl)phenyl)isonicotinamide], the IC50 is 1.25 nM. Still for that read-out and setting: to `Cc1ncc(NC(=O)c2cc(C(C)(C)O)ccn2)cc1-c1cnc(OCCO)c(N2CCOCC2)c1` [Example 972, N-(6′-(2-hydroxyethoxy)-2-methyl-5-morpholino-[3,3′-bipyridin]-5-yl)-4-(2-hydroxypropan-2-yl)picolinamide] belongs 37 nM.

For the compound `Cc1ncc(NC(=O)c2ccnc(S(C)(=O)=O)c2)cc1-c1cc(N2CCOCC2)nc(N2CC(O)C2)c1` [Example 1090, N-(2′-(3-hydroxyazetidin-1-yl)-2-methyl-6′-morpholino-[3,4′-bipyridin]-5-yl)-2-(methylsulfonyl)isonicotinamide], the IC50 was determined as 51.1 nM. Still for that read-out and setting: the result for `Cc1ccc(NC(=O)c2cncc(C(F)(F)F)c2)cc1-c1cnc(OC(C)C)c(N2CCOCC2)c1` [Example 951, N-(3-(6-isopropoxy-5-morpholinopyridin-3-yl)-4-methylphenyl)-5-(trifluoromethyl)nicotinamide] reads 0.31 nM. The same measure, in the same setting: the result for `Cc1ccc(NC(=O)c2cccc(C(F)F)c2)cc1-c1cc(N2CCOCC2)nc(N2CCOCC2)c1` [Example 1116, 3-(difluoromethyl)-N-(3-(2,6-dimorpholinopyridin-4-yl)-4-methylphenyl)benzamide] reads 0.82 nM; that for `Cc1ncc(NC(=O)c2cc(C(F)(F)F)ccn2)cc1-c1cc(N2CCOCC2)c2nccn2n1` [Example 868, N-(6-methyl-5-(8-morpholinoimidazo[1,2-b]pyridazin-6-yl)pyridin-3-yl)-4-(trifluoromethyl)picolinamide], 1.3 nM. On the same count and under the same terms, to `Cc1ccc(NC(=O)c2ccnc(C(C)(C)O)c2)cc1-c1cc(N2CCOCC2)c(S(C)(=O)=O)nn1` [Example 932, 2-(2-hydroxypropan-2-yl)-N-(4-methyl-3-(6-(methylsulfonyl)-5-morpholinopyridazin-3-yl)phenyl)isonicotinamide] belongs 6.89 nM; to `Cc1ncc(NC(=O)c2ccnc(C(C)(C)O)c2)cc1-c1cnc(OC(F)F)c(N2CCOCC2)c1` [Example 979, N-(6′-(difluoromethoxy)-2-methyl-5′-morpholino-[3,3′-bipyridin]-5-yl)-2-(2-hydroxypropan-2-yl)isonicotinamide], 13.6 nM.

Still in this experiment, the particulars now being: read-out: b-Raf IC-50; Table 2; AlphaScreen, 3 hours reaction.
Turning to `Cc1ccc(NC(=O)c2ccnc(C(C)(C)O)c2)cc1-c1cc(N2CCOCC2)c(=O)n(C)c1` [Example 350, 2-(2-hydroxypropan-2-yl)-N-(4-methyl-3-(1-methyl-5-morpholino-6-oxo-1,6-dihydropyridin-3-yl)phenyl)isonicotinamide], the IC50 was determined as 3.5 nM.

For the compound `CCc1cc(C(=O)Nc2ccc(C)c(-c3cc(N4CCOCC4)c(=O)n(C)c3)c2)ccn1` [Example 353, 2-ethyl-N-(4-methyl-3-(1-methyl-5-morpholino-6-oxo-1,6-dihydropyridin-3-yl)phenyl)isonicotinamide], the IC50 worked out at 1.2 nM. For `Cc1ncc(NC(=O)c2ccnc(C(F)(F)F)c2)cc1-c1cnc(Cl)c(N2CCOCC2)c1` [Example 291, N-(6′-chloro-2-methyl-5′-morpholino-[3,3′-bipyridin]-5-yl)-2-(trifluoromethyl)isonicotinamide], the IC50 stood at 2.3 nM. On the same count and under the same terms, the result for `Cc1ccc(NC(=O)c2cccc(C(F)(F)F)c2)cc1-c1cc(N2CCOCC2)nc(OCCO)n1` [Example 40, N-(3-(2-(2-hydroxyethoxy)-6-morpholinopyrimidin-4-yl)-4-methylphenyl)-3-(trifluoromethyl)benzamide] reads 0.8 nM; that for `Cc1ccc(NC(=O)c2cnnc(C(F)(F)F)c2)cc1-c1cc(N2CCOCC2)c(=O)n(C)c1` [Example 361, N-(4-methyl-3-(1-methyl-5-morpholino-6-oxo-1,6-dihydropyridin-3-yl)phenyl)-6-(trifluoromethyl)pyridazine-4-carboxamide], 2.8 nM; that for `CCOc1ncc(-c2cc(NC(=O)c3ccnc(C(C)(C)C#N)c3)cnc2C)cc1N1CCOCC1` [Example 239, 2-(2-cyanopropan-2-yl)-N-(6′-ethoxy-2-methyl-5′-morpholino-[3,3′-bipyridin]-5-yl)isonicotinamide], 5.6 nM.

In the case of `CCOc1ncc(-c2cc(NC(=O)c3ccnc(C4COC4)c3)cnc2C)cc1N1CCOCC1` [Example 255, N-(6′-ethoxy-2-methyl-5′-morpholino-[3,3′-bipyridin]-5-yl)-2-(oxetan-3-yl)isonicotinamide], the IC50 was determined as 5.6 nM.

On to `CCOc1ncc(-c2cc(NC(=O)c3cnnc(C(F)(F)F)c3)cnc2C)cc1N1CCOC[C@@H]1C` [Example 286, (S)—N-(6′-ethoxy-2-methyl-5′-(3-methylmorpholino)-[3,3′-bipyridin]-5-yl)-6-(trifluoromethyl)pyridazine-4-carboxamide], for which the IC50 turned out to be 200 nM.

In the case of `Cc1ncc(N(C)C(=O)c2cccc(C(F)(F)F)c2)cc1-c1cnc(OC2CCOCC2)c(N2CCOCC2)c1` [Example 328, N-methyl-N-(2-methyl-5′-morpholino-6′-((tetrahydro-2H-pyran-4-yl)oxy)-[3,3′-bipyridin]-5-yl)-3-(trifluoromethyl)benzamide], the IC50 was 62.4 nM.

For the origin of these results see patent US9694016B2 (Novartis AG, priority 2013, dated 2017).
